How the values were obtained:
Format in all cases: functional
CCRF-CEM = test: Cytotoxicity against human CCRF-CEM cells assessed as cell growth at 0.01 uM after 48 hrs by sulforhodamine B assay relative to control; settings: read-out: Activity
RPMI-8226 [1] = test: Cytotoxicity against human RPMI8226 cells assessed as cell growth at 1 uM after 48 hrs by sulforhodamine B assay relative to control; settings: RPMI-8226, 48 h, read-out: Activity
K562 [2] = test: Cytotoxicity against human K562 cells assessed as cell growth at 0.1 uM after 48 hrs by sulforhodamine B assay relative to control; settings: K562, 48 h, read-out: Activity
BT-549 [3] = test: Cytotoxicity against human BT549 cells assessed as cell growth at 0.01 uM after 48 hrs by sulforhodamine B assay relative to control; settings: BT-549, 48 h, read-out: Activity
SNB-19 = test: Cytotoxicity against human SNB19 cells assessed as growth inhibition after 48 hrs by sulforhodamine B assay; settings: SNB-19, 48 h; for CC50: read-out: LC50 (the source's name)
M14 = test: Cytotoxicity against human M14 cells assessed as cell growth at 100 uM after 48 hrs by sulforhodamine B assay relative to control; settings: M14, 48 h, read-out: Activity
SR = test: Cytotoxicity against human SR cells assessed as cell growth at 0.01 uM after 48 hrs by sulforhodamine B assay relative to control; settings: read-out: Activity
SF-539 = test: Cytotoxicity against human SF539 cells assessed as cell growth at 100 uM after 48 hrs by sulforhodamine B assay relative to control; settings: SF-539, 48 h, read-out: Activity
SK-MEL-28 = test: Cytotoxicity against human SK-MEL-28 cells assessed as cell growth at 100 uM after 48 hrs by sulforhodamine B assay relative to control; settings: SK-MEL-28, 48 h, read-out: Activity
UO-31 = test: Cytotoxicity against human UO31 cells assessed as growth inhibition after 48 hrs by sulforhodamine B assay; settings: UO-31, 48 h
IGROV-1 [4] = test: Cytotoxicity against human IGROV1 cells assessed as cell growth at 1 uM after 48 hrs by sulforhodamine B assay relative to control; settings: IGROV-1, 48 h, read-out: Activity
SK-OV-3 = test: Cytotoxicity against human SKOV3 cells assessed as cell growth at 0.01 uM after 48 hrs by sulforhodamine B assay relative to control; settings: SK-OV-3, 48 h, read-out: Activity
ACHN = test: Cytotoxicity against human ACHN cells assessed as cell growth at 100 uM after 48 hrs by sulforhodamine B assay relative to control; settings: read-out: Activity
OVCAR-5 = test: Cytotoxicity against human OVCAR5 cells assessed as cell growth at 0.1 uM after 48 hrs by sulforhodamine B assay relative to control; settings: OVCAR-5, 48 h, read-out: Activity
SF-268 = test: Cytotoxicity against human SF268 cells assessed as cell growth at 0.1 uM after 48 hrs by sulforhodamine B assay relative to control; settings: SF-268, 48 h, read-out: Activity
DU-145 = test: Cytotoxicity against human DU145 cells assessed as cell growth at 100 uM after 48 hrs by sulforhodamine B assay relative to control; settings: DU-145, 48 h, read-out: Activity
TK-10 = test: Cytotoxicity against human TK10 cells assessed as cell growth at 1 uM after 48 hrs by sulforhodamine B assay relative to control; settings: TK-10, 48 h, read-out: Activity
OVCAR-8 = test: Cytotoxicity against human OVCAR8 cells assessed as cell growth at 1 uM after 48 hrs by sulforhodamine B assay relative to control; settings: OVCAR-8, 48 h, read-out: Activity
IGROV-1 [5] = test: Cytotoxicity against human IGROV1 cells assessed as cell growth at 0.01 uM after 48 hrs by sulforhodamine B assay relative to control; settings: IGROV-1, 48 h, read-out: Activity
A549 = test: Cytotoxicity against human A549/ATCC cells assessed as cell growth at 0.1 uM after 48 hrs by sulforhodamine B assay relative to control; settings: A549, 48 h, read-out: Activity
NCI-H460 = test: Cytotoxicity against human NCI-H460 cells assessed as cell growth at 0.01 uM after 48 hrs by sulforhodamine B assay relative to control; settings: NCI-H460, 48 h, read-out: Activity
PC-3 = test: Cytotoxicity against human PC3 cells assessed as cell growth at 0.1 uM after 48 hrs by sulforhodamine B assay relative to control; settings: PC-3, 48 h, read-out: Activity
BT-549 [6] = test: Cytotoxicity against human BT549 cells assessed as growth inhibition after 48 hrs by sulforhodamine B assay; settings: BT-549, 48 h
HCC 2998 = test: Cytotoxicity against human HCC2998 cells assessed as cell growth at 0.01 uM after 48 hrs by sulforhodamine B assay relative to control; settings: HCC 2998, 48 h, read-out: Activity
786-0 = test: Cytotoxicity against human 786-0 cells assessed as growth inhibition after 48 hrs by sulforhodamine B assay; settings: 786-0, 48 h
SW-620 = test: Cytotoxicity against human SW620 cells assessed as cell growth at 0.1 uM after 48 hrs by sulforhodamine B assay relative to control; settings: SW-620, 48 h, read-out: Activity
COLO 205 = test: Cytotoxicity against human COLO205 cells assessed as cell growth at 1 uM after 48 hrs by sulforhodamine B assay relative to control; settings: COLO 205, 48 h, read-out: Activity
HT-29 = test: Cytotoxicity against human HT-29 cells assessed as cell growth at 100 uM after 48 hrs by sulforhodamine B assay relative to control; settings: HT-29, 48 h, read-out: Activity
NCI-H23 [7] = test: Cytotoxicity against human NCI-H23 cells assessed as cell growth at 0.1 uM after 48 hrs by sulforhodamine B assay relative to control; settings: NCI-H23, 48 h, read-out: Activity
UACC-62 = test: Cytotoxicity against human UACC62 cells assessed as cell growth at 0.1 uM after 48 hrs by sulforhodamine B assay relative to control; settings: UACC-62, 48 h, read-out: Activity
K562 [8] = test: Cytotoxicity against human K562 cells assessed as cell growth at 100 uM after 48 hrs by sulforhodamine B assay relative to control; settings: K562, 48 h, read-out: Activity
IGROV-1 [9] = test: Cytotoxicity against human IGROV1 cells assessed as cell growth at 10 uM after 48 hrs by sulforhodamine B assay relative to control; settings: IGROV-1, 48 h, read-out: Activity
NCI-H23 [10] = test: Cytotoxicity against human NCI-H23 cells assessed as cell growth at 1 uM after 48 hrs by sulforhodamine B assay relative to control; settings: NCI-H23, 48 h, read-out: Activity
U-251 = test: Cytotoxicity against human U251 cells assessed as growth inhibition after 48 hrs by sulforhodamine B assay; settings: U-251, 48 h
IGROV-1 [11] = test: Cytotoxicity against human IGROV1 cells assessed as cell growth at 0.1 uM after 48 hrs by sulforhodamine B assay relative to control; settings: IGROV-1, 48 h, read-out: Activity
RPMI-8226 [12] = test: Cytotoxicity against human RPMI8226 cells assessed as cell growth at 10 uM after 48 hrs by sulforhodamine B assay relative to control; settings: RPMI-8226, 48 h, read-out: Activity

COc1ccc(C(=O)/C=C/c2cc(-c3cc(OC)c(OC)c(OC)c3)n[nH]2)cc1OC
growth at 0.01 µM (CCRF-CEM): 95%
growth at 1 µM (RPMI-8226 [1]): 2%
growth at 0.1 µM (K562 [2]): 92%
growth at 0.01 µM (BT-549 [3]): 95%
TGI (SNB-19): 3.01 µM
CC50 (SNB-19): 6.36 µM
growth at 100 µM (M14): -68%
growth at 0.01 µM (SR): 100%
growth at 100 µM (SF-539): -96%
growth at 100 µM (SK-MEL-28): -90%
LC50 (UO-31): 5.17 µM
TGI (UO-31): 2.57 µM
growth at 1 µM (IGROV-1 [4]): 96%
growth at 0.01 µM (SK-OV-3): 100%
growth at 100 µM (ACHN): -91%
growth at 0.1 µM (OVCAR-5): 88%
growth at 0.1 µM (SF-268): 89%
growth at 100 µM (DU-145): -89%
growth at 1 µM (TK-10): 71%
growth at 1 µM (OVCAR-8): 69%
growth at 0.01 µM (IGROV-1 [5]): 98%
growth at 0.1 µM (A549): 98%
growth at 0.01 µM (NCI-H460): 103%
growth at 0.1 µM (PC-3): 95%
LC50 (concentration killing 50% of cells) (BT-549 [6]): 5.87 µM
TGI (BT-549 [6]): 2.9 µM
growth at 0.01 µM (HCC 2998): 93%
LC50 (786-0): 5.82 µM
TGI (786-0): 2.86 µM
growth at 0.1 µM (SW-620): 99%
growth at 1 µM (COLO 205): 95%
growth at 100 µM (HT-29): -81%
growth at 0.1 µM (NCI-H23 [7]): 94%
growth at 0.1 µM (UACC-62): 95%
growth at 100 µM (K562 [8]): -15%
growth at 10 µM (IGROV-1 [9]): -84%
growth at 1 µM (NCI-H23 [10]): 93%
LC50 (U-251): 4.99 µM
TGI (U-251): 2.48 µM
growth at 0.1 µM (IGROV-1 [11]): 96%
growth at 10 µM (RPMI-8226 [12]): -50%

COc1ccc(-c2cc(/C=C/C(=O)c3ccc(N)cc3)[nH]n2)cc1
growth at 0.01 µM (CCRF-CEM): 99%
growth at 1 µM (RPMI-8226 [1]): 36%
growth at 0.1 µM (K562 [2]): 95%
growth at 0.01 µM (BT-549 [3]): 92%
GI50 (SNB-19): 2.29 µM
TGI (SNB-19): 11.6 µM
CC50 (SNB-19): 44.3 µM
growth at 100 µM (M14): -71%
growth at 0.01 µM (SR): 94%
growth at 100 µM (SF-539): -94%
growth at 100 µM (SK-MEL-28): -81%
GI50 (UO-31): 1.18 µM
LC50 (UO-31): 5.54 µM
TGI (UO-31): 2.56 µM
growth at 1 µM (IGROV-1 [4]): 89%
growth at 0.01 µM (SK-OV-3): 101%
growth at 100 µM (ACHN): -73%
growth at 0.1 µM (OVCAR-5): 95%
growth at 0.1 µM (SF-268): 93%
growth at 100 µM (DU-145): -100%
growth at 1 µM (TK-10): 81%
growth at 1 µM (OVCAR-8): 76%
growth at 0.01 µM (IGROV-1 [5]): 98%
growth at 0.1 µM (A549): 98%
growth at 0.01 µM (NCI-H460): 101%
growth at 0.1 µM (PC-3): 93%
GI50 (BT-549 [6]): 1.74 µM
LC50 (concentration killing 50% of cells) (BT-549 [6]): 36.3 µM
TGI (BT-549 [6]): 4.78 µM
growth at 0.01 µM (HCC 2998): 96%
GI50 (786-0): 2.12 µM
LC50 (786-0): 58.1 µM
TGI (786-0): 5.69 µM
growth at 0.1 µM (SW-620): 101%
growth at 1 µM (COLO 205): 100%
growth at 100 µM (HT-29): -56%
growth at 0.1 µM (NCI-H23 [7]): 94%
growth at 0.1 µM (UACC-62): 97%
growth at 100 µM (K562 [8]): -60%
growth at 10 µM (IGROV-1 [9]): -21%
growth at 1 µM (NCI-H23 [10]): 93%
GI50 (U-251): 1.24 µM
LC50 (U-251): 5.3 µM
TGI (U-251): 2.57 µM
growth at 0.1 µM (IGROV-1 [11]): 91%
growth at 10 µM (RPMI-8226 [12]): -35%

COc1cc(C(=O)/C=C/c2cc(-c3ccc4c(c3)OCO4)n[nH]2)cc(OC)c1OC
growth at 0.01 µM (CCRF-CEM): 99%
growth at 1 µM (RPMI-8226 [1]): 32%
growth at 0.1 µM (K562 [2]): 84%
growth at 0.01 µM (BT-549 [3]): 97%
GI50 (SNB-19): 2.34 µM
TGI (SNB-19): 11.7 µM
CC50 (SNB-19): 35.6 µM
growth at 100 µM (M14): -84%
growth at 0.01 µM (SR): 97%
growth at 100 µM (SF-539): -85%
growth at 100 µM (SK-MEL-28): -96%
GI50 (UO-31): 1.34 µM
LC50 (UO-31): 5.33 µM
TGI (UO-31): 2.67 µM
growth at 1 µM (IGROV-1 [4]): 83%
growth at 0.01 µM (SK-OV-3): 98%
growth at 100 µM (ACHN): -68%
growth at 0.1 µM (OVCAR-5): 99%
growth at 0.1 µM (SF-268): 96%
growth at 100 µM (DU-145): -97%
growth at 1 µM (TK-10): 109%
growth at 1 µM (OVCAR-8): 93%
growth at 0.01 µM (IGROV-1 [5]): 101%
growth at 0.1 µM (A549): 98%
growth at 0.01 µM (NCI-H460): 99%
growth at 0.1 µM (PC-3): 95%
GI50 (BT-549 [6]): 2.02 µM
LC50 (concentration killing 50% of cells) (BT-549 [6]): 20.1 µM
TGI (BT-549 [6]): 5 µM
growth at 0.01 µM (HCC 2998): 99%
GI50 (786-0): 1.84 µM
LC50 (786-0): 6.51 µM
TGI (786-0): 3.46 µM
growth at 0.1 µM (SW-620): 95%
growth at 1 µM (COLO 205): 95%
growth at 100 µM (HT-29): -45%
growth at 0.1 µM (NCI-H23 [7]): 93%
growth at 0.1 µM (UACC-62): 97%
growth at 100 µM (K562 [8]): 5%
growth at 10 µM (IGROV-1 [9]): -26%
growth at 1 µM (NCI-H23 [10]): 92%
GI50 (U-251): 1.21 µM
LC50 (U-251): 5.13 µM
TGI (U-251): 2.49 µM
growth at 0.1 µM (IGROV-1 [11]): 87%
growth at 10 µM (RPMI-8226 [12]): -48%
